Patent US9975903B2, “Condensed heterocyclic compound” (Takeda Pharmaceutical Company Limited, priority 2014, dated 2018)
Structures can show the parent of a compound that is named as a salt.

Biological target: T1, Human recombinant enteropeptidase (Homo sapiens, UniProt P98073)
T1 construct: purchased ITSI-Biosciences LLC #REN-260
Experiment: Human enteropeptidase inhibitory activity (Test Example 1)
Type: biochemical
Conditions: 3.3 μM test compound; inhibition rate from fluorescence intensity at 2 hours after the start of the reaction
Experimental: Human recombinant enteropeptidase (#REN-260, ITSI-Biosciences LLC) was diluted with an assay buffer (50 mM Tricine, pH 8.0, 0.01 (w/v) %, Tween 20, 10 mM CaCl2) to prepare a 24 mU/mL enzyme solution. Subsequently, 5FAM-Abu-Gly-Asp-Asp-Asp-Lys-Ile-Val-Gly-Gly-Lys(CPQ2)-Lys-Lys-NH2 (SEQ ID NO: 1, purity: 97.2%, CPC Scientific Inc.) was diluted with the assay buffer to prepare a 2.1 μM substrate solution. A test compound is dissolved in DMSO into a 1 mM solution, and the solution was diluted by 100-fold with the assay buffer to give a compound solution. To a 384-well black plate (#784076, Greiner Bio-One), 5 μL of the compound solution and 5 μL of the substrate solution were added and mixed, and 5 μL of the enzyme solution was then added to the mixture, followed by mixing to start the reaction. The fluorescence intensity was measured with a fluorescence plate reader EnVision (The Perkin-Elmer Corp.) at an excitation wavelength of 485 nm and a fluorescence wavelength of 535 nm. The same reaction as above except that the test compound was not contained was performed (test compound non-addition group). Furthermore, the same reaction as above except that the test compound and the enzyme were not contained was performed (control group). The inhibition rate was calculated using the fluorescence intensity at 2 hours after the start of the reaction by the following expression: Inhibition rate (%)=(1−((fluorescence intensity of test compound addition group)−(fluorescence intensity of control group))/((fluorescence intensity of test compound non-addition group)−(fluorescence intensity of control group)))×100

T1 sequence (P98073 whole entry): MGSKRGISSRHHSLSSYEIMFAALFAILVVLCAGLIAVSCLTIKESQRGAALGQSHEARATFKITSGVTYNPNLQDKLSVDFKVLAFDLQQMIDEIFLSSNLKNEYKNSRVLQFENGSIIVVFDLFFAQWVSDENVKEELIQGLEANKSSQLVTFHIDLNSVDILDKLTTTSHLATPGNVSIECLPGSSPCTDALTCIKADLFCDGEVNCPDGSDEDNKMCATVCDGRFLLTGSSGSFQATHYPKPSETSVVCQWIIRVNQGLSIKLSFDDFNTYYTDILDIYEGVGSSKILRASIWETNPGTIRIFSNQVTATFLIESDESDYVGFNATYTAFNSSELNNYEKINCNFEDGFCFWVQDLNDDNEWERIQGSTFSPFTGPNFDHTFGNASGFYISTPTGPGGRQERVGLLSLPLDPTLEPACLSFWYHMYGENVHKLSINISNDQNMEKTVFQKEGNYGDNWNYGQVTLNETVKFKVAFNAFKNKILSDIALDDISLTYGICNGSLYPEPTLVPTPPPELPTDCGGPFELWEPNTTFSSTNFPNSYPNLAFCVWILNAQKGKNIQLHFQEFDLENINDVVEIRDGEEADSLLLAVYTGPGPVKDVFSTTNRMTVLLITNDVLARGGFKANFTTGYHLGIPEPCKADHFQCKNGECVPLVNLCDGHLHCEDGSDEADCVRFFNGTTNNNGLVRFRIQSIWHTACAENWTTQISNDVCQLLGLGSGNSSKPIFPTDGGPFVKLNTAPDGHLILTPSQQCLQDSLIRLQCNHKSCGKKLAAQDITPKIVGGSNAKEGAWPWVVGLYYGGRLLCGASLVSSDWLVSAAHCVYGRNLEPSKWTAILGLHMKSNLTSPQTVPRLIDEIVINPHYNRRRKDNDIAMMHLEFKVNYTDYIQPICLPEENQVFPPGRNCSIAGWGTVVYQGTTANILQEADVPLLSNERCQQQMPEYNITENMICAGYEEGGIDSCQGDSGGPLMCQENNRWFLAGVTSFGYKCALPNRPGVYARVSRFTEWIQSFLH

Compound	3.3 μM Inhibition [%]
4-((((10- carbamimidamido- 13-oxo-6,7,8,13- tetrahydro- dibenzo[b,f] [1,4]dioxecin-4- yl)carbonyl) carboxymethyl) amino)methyl) thiophene-2- carboxylic acid [Example 125]	100

Same assay, conditions: 3.3 μM test compound; inhibition rate from fluorescence intensity at 2 hours after the start of the reaction; read-out: 3.3 μM Inhibition

Compound	inhibition at 3.3 µM [%]
N=C(N)Nc1ccc2c(c1)CCCOc1cc(C(=O)N[C@@H](CC(=O)O)C(=O)O)ccc1OC2=O [Example 81, N-((10-carbamimidamido-13-oxo-6,7,8,13-tetrahydro-dibenzo[b,f] [1,4]dioxecin-3-yl)carbonyl)-L-aspartic acid]	101
N=C(N)Nc1ccc2c(c1)CCCOc1c(cccc1C(=O)N[C@@H](CC(=O)O)C(=O)O)OC2=O [Example 1, N-((10-Carbamimidamido-13-oxo-6,7,8,13-tetrahydrodibenzo[b,f][1,4]dioxecin-4-yl)carbonyl)-L-aspartic acid]	101
N=C(N)Nc1ccc2c(c1)CCCOc1c(cccc1C(=O)N(CC(=O)O)CC(=O)N(CC(=O)O)Cc1ccccc1)OC2=O [Example 140, N-((10-Carbamimidamido-13-oxo-6,7,8,13-tetrahydrodibenzo[b,f][1,4]dioxecin-4-yl)carbonyl)-N-(carboxymethyl)glycyl-N-benzylglycine]	100
N=C(N)Nc1ccc2c(c1)CCCOc1cc(C(=O)N[C@H](CC(=O)O)C(=O)O)ccc1OC2=O (stereo in doubt) [Example 45, N-((10-carbamimidamido-13-oxo-6,7,8,13-tetrahydro-dibenzo[b,f] [1,4]dioxecin-3-yl)carbonyl)aspartic acid]	100
N=C(N)Nc1ccc2c(c1)CCCOc1c(cccc1C(=O)NCP(=O)(O)O)OC2=O [Example 25, ((((10-carbamimidamido-13-oxo-6,7,8,13-tetrahydro-dibenzo[b,f] [1,4]dioxecin-4-yl)carbonyl)amino)methyl)phosphonic acid]	102
N=C(N)Nc1ccc2c(c1)CCCOc1c(cccc1C(=O)N[C@@H](CCC(N)=O)C(=O)O)OC2=O [Example 16, N^~2^~-((10-carbamimidamido-13-oxo-6,7,8,13-tetrahydro-dibenzo[b,f] [1,4]dioxecin-4-yl)carbonyl)-L-glutamine]	101
N=C(N)Nc1ccc2c(c1)CCCCc1cc3c(cc1OC2=O)OC[C@H]3CC(=O)NCCS(=O)(=O)O [Example 35, 2-((((10S)-3-carbamimidamido-15-oxo-5,7,8,10,11,15-hexahydro-6H-12,14-dioxabenzo[5,6]cyclodeca[1,2-f]inden-10-yl)acetyl)amino)ethane-sulfonic acid]	90
N=C(N)Nc1ccc2c(c1)CCOc1c(cccc1C(=O)NCCS(=O)(=O)O)OC2=O [Example 15, 2-(((9-carbamimidamido-6-oxo-11,12-dihydro-6H-dibenzo[b,f][1,4]dioxonin-1-yl)carbonyl)amino) ethanesulfonic acid]	101
CN(C(=O)c1cccc2c1OCCCc1cc(NC(=N)N)ccc1C(=O)O2)[C@@H](CC(=O)O)C(=O)O [Example 85, N-((10-carbamimidamido-13-oxo-6,7,8,13-tetrahydrodibenzo[b,f] [1,4]dioxecin-4-yl)carbonyl)-N-methyl-L-aspartic acid]	101
N=C(N)Nc1ccc2c(c1)COc1c(cccc1C(=O)N[C@@H](CC(=O)O)C(=O)O)OC2=O [Example 19, N-((9-Carbamimidamido-6-oxo-6,11-dihydrodibenzo[b,f][1,4]dioxocin-1-yl)carbonyl)-L-aspartic acid trifluoroacetate]	99
N=C(N)Nc1ccc2c(c1)CCCOc1c(cccc1C(=O)NCC(=O)N[C@@H](CC(=O)O)C(=O)O)OC2=O [Example 100, N-((10-carbamimidamido-13-oxo-6,7,8,13-tetrahydro-dibenzo[b,f] [1,4]dioxecin-4-yl)carbonyl)glycyl-L-aspartic acid]	101
C[C@@H](O)[C@H](NC(=O)c1cccc2c1OCCCc1cc(NC(=N)N)ccc1C(=O)O2)C(=O)O [Example 90, N-((10-carbamimidamido-13-oxo-6,7,8,13-tetrahydro-dibenzo[b,f] [1,4]dioxecin-4-yl)carbonyl)-L-threonine]	101
N=C(N)Nc1ccc2c(c1)CCCOc1c(cccc1C(=O)N(CC(=O)O)CC(=O)N(CC(=O)O)CC(=O)O)OC2=O [Example 115, ((2-(Bis(carboxymethyl)amino)-2-oxoethyl) ((10-carbamimidamido-13-oxo-6,7,8,13-tetrahydrodibenzo[b,f][1,4]dioxecin-4-yl)carbonyl)amino)acetic acid]	99
N=C(N)Nc1ccc2c(c1)CCCOc1c(cccc1C1=NOC(CC(=O)O)(C(=O)O)C1)OC2=O (stereo not drawn) [Example 23, 3-(10-Carbamimidamido-13-oxo-6,7,8,13-tetrahydrodibenzo[b,f][1,4]dioxecin-4-yl)-5-(carboxymethyl)-4,5-dihydro-1,2-oxazole-5-carboxylic acid]	102
N=C(N)Nc1ccc2c(c1)CCCOc1c(cccc1C(=O)N(CC(=O)O)Cc1cc(C(=O)O)cc(C(=O)O)c1)OC2=O [Example 146, 5-((((10-carbamimidamido-13-oxo-6,7,8,13-tetrahydro-dibenzo[b,f] [1,4]dioxecin-4-yl)carbonyl)-(carboxy-methyl)-amino)methyl) isophthalic acid]	102
COCCN(C(=O)c1cccc2c1OCCCc1cc(NC(=N)N)ccc1C(=O)O2)[C@@H](CC(=O)O)C(=O)O [Example 109, N-((10-carbamimidamido-13-oxo-6,7,8,13-tetrahydro-dibenzo[b,f] [1,4]dioxecin-4-yl)carbonyl)-N-(2-methoxyethyl)-L-aspartic acid]	100
N=C(N)Nc1ccc2c(c1)CCCCOc1c(CCC(=O)N[C@@H](CC(=O)O)C(=O)O)cccc1OC2=O [Example 44, N-(3-(11-Carbamimidamido-14-oxo-7,8,9,14-tetrahydro-6H-dibenzo[b,f][1,4]dioxacycloundecin-4-yl)propanoyl)-L-aspartic acid trifluoroacetate]	96
N#Cc1cc2c(c(C(=O)N[C@@H](CC(=O)O)C(=O)O)c1)OCCCc1cc(NC(=N)N)ccc1C(=O)O2 [Example 114, N-((10-Carbamimidamido-2-cyano-13-oxo-6,7,8,13-tetrahydrodibenzo[b,f][1,4]dioxecin-4-yl)carbonyl)-L-aspartic acid]	99
N=C(N)Nc1ccc2c(c1)CCCOc1c(cccc1C(=O)N[C@@H](CS(=O)(=O)O)C(=O)O)OC2=O [Example 6, N-((10-Carbamimidamido-13-oxo-6,7,8,13-tetrahydrodibenzo[b,f][1,4]dioxecin-4-yl)carbonyl)-3-sulfo-L-alanine]	101
N=C(N)Nc1ccc2c(c1)CCCOc1c(cc(Cl)cc1C(=O)N[C@@H](CC(=O)O)C(=O)O)OC2=O [Example 66, N-((10-carbamimidamido-2-chloro-13-oxo-6,7,8,13-tetrahydro-dibenzo[b,f] [1,4]dioxecin-4-yl)carbonyl)-L-aspartic acid]	101
N=C(N)Nc1ccc2c(c1)CCCOc1c(cccc1C(=O)N(CC(=O)O)[C@@H](Cc1ccc(OCCN(CC(=O)O)CC(=O)O)cc1)C(=O)O)OC2=O [Example 108, O-(2-(Bis(carboxymethyl)amino)ethyl)-N-((10-carbamimidamido-13-oxo-6,7,8,13-tetrahydrodibenzo[b,f][1,4]dioxecin-4-yl)carbonyl)-N-(carboxymethyl)-L-tyrosine]	100
N=C(N)Nc1ccc2c(c1)CCCCCCc1c(cccc1C(=O)N[C@@H](CC(=O)O)C(=O)O)OC2=O [Example 77, N-((3-Carbamimidamido-16-oxo-5,7,8,9,10,16-hexahydro-6H-dibenzo[b,j]oxacyclododecin-11-yl)carbonyl)-L-aspartic acid]	99
N=C(N)Nc1ccc2c(c1)CCCOc1c(cccc1C(=O)O)OC2=O [Example 29, 10-carbamimidamido-13-oxo-6,7,8,13-tetrahydro-dibenzo[b,f] [1,4]dioxecine-4-carboxylic acid]	101
N=C(N)Nc1ccc2c(c1)CCCOc1c(CCC(=O)N[C@@H](CC(=O)O)C(=O)O)cccc1OC2=O [Example 47, N-(3-(10-Carbamimidamido-13-oxo-6,7,8,13-tetrahydrodibenzo[b,f][1,4]dioxecin-4-yl)propanoyl)aspartic acid]	101
N=C(N)Nc1ccc2c(c1)CCCOc1c(cc(CCC(=O)O)cc1C(=O)N[C@@H](CC(=O)O)C(=O)O)OC2=O [Example 117, N-((10-carbamimidamido-2-(2-carboxyethyl)-13-oxo-6,7,8,13-tetrahydro-dibenzo[b,f] [1,4]dioxecin-4-yl)carbonyl)-L-aspartic acid]	100

Same assay, conditions: read-out: 3.3 μM Inhibition

Compound	inhibition at 3.3 µM [%]
N=C(N)c1ccc2c(c1)CCc1ccccc1C(=O)O2 [Example 59, 6-Oxo-11,12-dihydro-6H-dibenzo[b,f]oxocine-2-carboximidamide trifluoroacetate]	57
